The text below walks through data of ChEMBL document CHEMBL1201862, “PubChem BioAssay data set” (2004).

The structures appear in SMILES notation. Activity calls are given as the source filed them.

The term EC50 denotes the concentration at which the effect is half-maximal. For orientation: IC50 means the point on the concentration scale where inhibition reaches its midpoint. By CC50 is commonly meant the concentration giving 50% cytotoxicity. The AC50 is the concentration giving half of the maximal activity seen.

The target in assay [1] is T1, RNA-binding protein pos-1 (Caenorhabditis elegans, UniProt G5EF15).
T1 sequence (G5EF15 whole entry): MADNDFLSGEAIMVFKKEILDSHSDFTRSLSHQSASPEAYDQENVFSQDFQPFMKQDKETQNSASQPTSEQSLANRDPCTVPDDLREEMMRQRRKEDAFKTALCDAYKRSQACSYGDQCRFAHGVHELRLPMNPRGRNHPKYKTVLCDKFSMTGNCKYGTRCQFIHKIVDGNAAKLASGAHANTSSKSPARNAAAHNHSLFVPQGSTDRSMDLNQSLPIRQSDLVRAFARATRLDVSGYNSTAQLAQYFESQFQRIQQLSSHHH
Description: inhibitors of POS-1/mex-3 RNA binding, dose response, biochemical, fluorescence polarization (AID 1964).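 Further: purified POS-1 fused to maltose binding protein made in E. coli; potency of compounds blocking POS-1 binding to fluorescent RNA.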 For orientation: In fluorescence polarisation assays a small probe gives low polarisation when free and higher when bound to something large.

In assay [2] the target is T2, Zinc finger protein mex-5 (Caenorhabditis elegans, UniProt Q9XUB2).
T2 sequence (Q9XUB2 whole entry): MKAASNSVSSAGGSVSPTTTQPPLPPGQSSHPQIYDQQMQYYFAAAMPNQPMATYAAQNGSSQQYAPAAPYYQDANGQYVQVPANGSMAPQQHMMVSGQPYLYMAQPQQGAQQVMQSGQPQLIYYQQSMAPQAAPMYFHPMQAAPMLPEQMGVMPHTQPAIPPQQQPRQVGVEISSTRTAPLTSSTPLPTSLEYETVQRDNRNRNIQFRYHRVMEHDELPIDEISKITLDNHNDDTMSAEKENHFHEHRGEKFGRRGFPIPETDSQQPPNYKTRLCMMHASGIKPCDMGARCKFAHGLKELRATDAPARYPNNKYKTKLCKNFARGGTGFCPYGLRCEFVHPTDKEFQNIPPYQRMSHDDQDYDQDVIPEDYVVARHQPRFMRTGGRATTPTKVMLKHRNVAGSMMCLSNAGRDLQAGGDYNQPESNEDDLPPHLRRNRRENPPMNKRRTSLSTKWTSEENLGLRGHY
In words: MEX-5/TCR-2 RNA interaction inhibitors, dose response, biochemical, C. elegans, fluorescence polarization (AID 1960).

Another assay concerns the target T3, Cysteine protease ATG4B (Homo sapiens, UniProt Q9Y4P1).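 Further: Fluorescence-based dose-response confirmation assay measuring inhibition of ATG4B activity.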
T3 sequence (Q9Y4P1 whole entry): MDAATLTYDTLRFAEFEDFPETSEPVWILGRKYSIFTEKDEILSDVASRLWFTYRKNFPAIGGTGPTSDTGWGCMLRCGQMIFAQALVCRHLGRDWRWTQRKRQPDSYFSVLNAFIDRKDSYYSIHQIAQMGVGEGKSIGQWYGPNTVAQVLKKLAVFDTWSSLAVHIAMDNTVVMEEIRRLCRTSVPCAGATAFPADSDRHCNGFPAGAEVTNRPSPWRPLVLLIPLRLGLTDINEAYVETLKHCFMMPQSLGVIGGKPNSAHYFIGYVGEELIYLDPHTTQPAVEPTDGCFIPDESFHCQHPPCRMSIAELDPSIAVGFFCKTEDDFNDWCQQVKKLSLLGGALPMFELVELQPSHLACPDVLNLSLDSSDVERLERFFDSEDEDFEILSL
It counts as functional.

For the next assay, the target named is Phospholipase A2 (Homo sapiens, UniProt P04054). It counts as functional.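 Further: confirmatory dose-response counterscreen on phospholipase A2, testing hits that came from an ultra-high-throughput screen for ATG4B inhibitors.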
Chain of Phospholipase A2 (P04054 whole entry): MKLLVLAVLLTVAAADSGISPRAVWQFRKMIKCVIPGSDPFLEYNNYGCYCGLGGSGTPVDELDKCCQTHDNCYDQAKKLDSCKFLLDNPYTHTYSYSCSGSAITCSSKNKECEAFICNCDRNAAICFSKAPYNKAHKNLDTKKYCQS
Assay [3] can be described thus: inhibitors of intracellular T. cruzi replication, confirmation, NIH3T3 host cells, beta-gal luminescence (AID 2044).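 Further: intracellular parasites grown in NIH/3T3 mouse fibroblasts as host cells; luminescent beta-galactosidase reporter signal from transgenic T. cruzi replicating inside host cells; inhibitors lower the luminescence signal.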 It counts as functional, cell-based.
Assay [4] is described as follows: cytotoxicity toward NIH3T3 fibroblasts, dose response, counter-screen, cell-based, ATP luminescence, mouse fibroblasts (AID 2010).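 Further: cells exposed to compound for about 90 hours before reading.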 It counts as functional. Background: A counterscreen serves to expose hits that act by an unwanted route or on another target.
Assay [5] in a line: HEp-2 cell cytotoxicity, dose response, cytotoxicity control for RSV inhibitor project, HTS (AID 2410). It counts as functional. The settings on record: human respiratory syncytial virus.
Assay [6] in a line: cells.
The target in assay [7] is DNA dC->dU-editing enzyme APOBEC-3G (Homo sapiens, UniProt Q9HC16). In words: Dose Response confirmation of small molecule APOBEC3G DNA Deaminase Inhibitors via a fluorescence-based single-stranded DNA deaminase assay. [Related pubchem assays (depositor defined):AID493012, AID493028]. The format is functional.
Chain of DNA dC->dU-editing enzyme APOBEC-3G (Q9HC16 whole entry): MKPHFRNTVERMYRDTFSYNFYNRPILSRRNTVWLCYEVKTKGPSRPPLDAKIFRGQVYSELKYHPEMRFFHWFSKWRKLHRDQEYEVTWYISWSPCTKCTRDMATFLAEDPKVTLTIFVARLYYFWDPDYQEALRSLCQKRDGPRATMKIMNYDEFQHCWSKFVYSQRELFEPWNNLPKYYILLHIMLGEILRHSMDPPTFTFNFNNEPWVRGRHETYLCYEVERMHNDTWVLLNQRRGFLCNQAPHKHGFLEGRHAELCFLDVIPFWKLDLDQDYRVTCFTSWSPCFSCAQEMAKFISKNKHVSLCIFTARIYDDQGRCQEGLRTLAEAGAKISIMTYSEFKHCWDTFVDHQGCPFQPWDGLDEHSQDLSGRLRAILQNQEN
Assay [8] has as its target Glyceraldehyde-3-phosphate dehydrogenase (Homo sapiens, UniProt P04406).
Assay [9] deals with T4, Alkaline phosphatase, tissue-nonspecific isozyme (Homo sapiens, UniProt P05186).
T4 sequence (P05186 whole entry): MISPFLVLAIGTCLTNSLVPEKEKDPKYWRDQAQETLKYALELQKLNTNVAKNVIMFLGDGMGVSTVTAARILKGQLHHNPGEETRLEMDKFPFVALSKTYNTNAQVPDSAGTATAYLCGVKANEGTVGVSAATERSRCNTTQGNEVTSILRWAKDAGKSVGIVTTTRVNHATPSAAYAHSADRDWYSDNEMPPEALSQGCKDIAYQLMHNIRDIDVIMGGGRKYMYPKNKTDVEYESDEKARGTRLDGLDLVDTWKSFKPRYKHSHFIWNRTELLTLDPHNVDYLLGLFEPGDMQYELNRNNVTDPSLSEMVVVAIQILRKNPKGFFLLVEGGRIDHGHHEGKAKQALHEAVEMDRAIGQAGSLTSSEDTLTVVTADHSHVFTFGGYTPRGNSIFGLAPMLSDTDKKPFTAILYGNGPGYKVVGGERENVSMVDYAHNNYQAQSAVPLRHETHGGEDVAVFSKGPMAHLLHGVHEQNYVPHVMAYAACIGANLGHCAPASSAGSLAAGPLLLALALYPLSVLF
In words: human TNAP enzyme inhibitors, SAR follow-up, biochemical, luminescent, dose response (AID 1056).

Assay [10] can be described thus: Luminescence Cell-Based Dose Retest to Confirm Inhibitors of Cancer Stem Cells. [Related pubchem assays (depositor defined):AID2717, AID2721]. The format is functional. The settings on record: Homo sapiens.
The next assay has as its system INS1. Description: beta cell apoptosis inhibitors, cytokine rescue, dose response, luminescence, retest (AID 449756).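 Further: cell death triggered by IL-1 beta plus TNF-alpha plus IFN-gamma mixture; protective hits raise ATP signal compared with cytokine alone wells.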 It counts as functional, cell-based. The settings on record: Rattus norvegicus.
Assay [11] in a line: cells. It counts as functional.
Assay [12] is described as follows: LGR2 antagonists, dose response, cell-based, HEK293, CRE-luciferase reporter, cherry pick, set 2 (AID 743343).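 Further: transfected cells were stimulated with diluted bursicon conditioned medium after compound addition.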 The format is functional. (Reporter assays use an easily measured gene product as a stand-in for the process of interest.)
The target of assay [13] is Induced myeloid leukemia cell differentiation protein Mcl-1 (Homo sapiens, UniProt Q07820). It counts as functional.
Chain of Induced myeloid leukemia cell differentiation protein Mcl-1 (Q07820 whole entry): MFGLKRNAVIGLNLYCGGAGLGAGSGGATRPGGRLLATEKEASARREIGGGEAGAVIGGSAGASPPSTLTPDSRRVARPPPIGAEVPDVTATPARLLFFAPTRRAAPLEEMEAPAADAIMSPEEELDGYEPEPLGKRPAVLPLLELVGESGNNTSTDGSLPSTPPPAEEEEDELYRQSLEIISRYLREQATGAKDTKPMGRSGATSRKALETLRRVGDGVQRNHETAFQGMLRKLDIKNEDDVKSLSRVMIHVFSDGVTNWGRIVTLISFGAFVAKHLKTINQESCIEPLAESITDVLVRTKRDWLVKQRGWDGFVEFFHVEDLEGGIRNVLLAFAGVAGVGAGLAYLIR
The nature of assay [14]: miR-122 activators in hepatoma reporter cells, dose response, cell-based, Huh7 psiCHECK-miR122, Renilla luciferase, cherry-picked (AID 651956).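 Further: huh7 hepatoma cells stably carrying a psiCHECK-2 miR-122 sensor plasmid; renilla luciferase signal reporting endogenous miR-122 activity after 48 h compound exposure.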 It counts as functional.
Another assay deals with Paired box protein Pax-8 (Homo sapiens, UniProt Q06710). Description: inhibitors of PAX8-driven TPO luciferase reporter, dose response, RMG-I cells, cherry-pick (AID 687027).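 Further: luciferase reporter driven by Pax8 target thyroperoxidase promoter measured by SteadyGlo luminescence.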 It counts as functional, cell-based.
Chain of Paired box protein Pax-8 (Q06710 whole entry): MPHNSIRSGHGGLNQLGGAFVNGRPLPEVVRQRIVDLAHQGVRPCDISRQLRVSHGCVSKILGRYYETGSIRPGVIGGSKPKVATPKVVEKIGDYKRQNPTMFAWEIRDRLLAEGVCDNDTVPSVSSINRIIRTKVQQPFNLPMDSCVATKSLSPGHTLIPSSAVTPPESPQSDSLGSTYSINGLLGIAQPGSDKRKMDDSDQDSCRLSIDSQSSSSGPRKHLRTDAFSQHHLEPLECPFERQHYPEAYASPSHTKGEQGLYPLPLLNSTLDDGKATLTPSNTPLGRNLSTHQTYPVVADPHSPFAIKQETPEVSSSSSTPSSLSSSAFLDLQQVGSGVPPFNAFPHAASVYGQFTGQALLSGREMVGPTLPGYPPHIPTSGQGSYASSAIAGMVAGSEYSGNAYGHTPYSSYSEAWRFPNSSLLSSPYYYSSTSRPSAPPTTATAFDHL
Assay [15] is described as follows: P. falciparum 3D7-ScDHODH growth inhibitors, dose response, SYBR Green, dry powder samples (AID 1159570).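 Further: parasite growth measured after 72 hours of compound exposure.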 The format is functional, cell-based.
Assay [16] can be described thus: HepG2 cell cytotoxicity, dose response, cytotoxicity control, plate reader, dry powder samples (AID 1159569).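 Further: inhibitor potency with signal falling toward the positive control level.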 It counts as functional, cell-based.
Assay [17] can be described thus: P. falciparum Dd2 growth inhibitors, dose response, SYBR Green, cherry-picked samples (AID 1159567). It counts as functional, cell-based.
Assay [18] in a line: P. falciparum Dd2 growth inhibitors, dose response, SYBR Green, dry powder samples (AID 1159566).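 Further: potency for growth inhibition with lower SYBR green DNA signal.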 It counts as functional, cell-based.
The nature of assay [19]: P. falciparum ATP4 D1247Y mutant growth inhibitors, dose response, NITD609-resistant line, SYBR Green, dry powder (AID 1159571).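 Further: parasites synchronized at ring stage by sorbitol before testing.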 It counts as functional, cell-based.

Chain of Glyceraldehyde-3-phosphate dehydrogenase (P04406 whole entry): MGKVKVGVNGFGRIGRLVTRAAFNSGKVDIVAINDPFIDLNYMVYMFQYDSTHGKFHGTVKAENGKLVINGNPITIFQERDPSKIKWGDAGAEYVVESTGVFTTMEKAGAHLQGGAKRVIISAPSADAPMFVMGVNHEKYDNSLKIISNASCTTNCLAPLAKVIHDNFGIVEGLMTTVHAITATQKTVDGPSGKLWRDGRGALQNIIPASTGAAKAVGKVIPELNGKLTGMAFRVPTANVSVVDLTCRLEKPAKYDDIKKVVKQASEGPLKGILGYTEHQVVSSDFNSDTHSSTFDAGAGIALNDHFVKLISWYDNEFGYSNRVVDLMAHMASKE

Regarding `O=C1NC(=O)N(c2ccc(Cl)cc2)C(=O)/C1=C/NCCN1CCCCC1`, the EC50 in [1] and in assay [2] was > 300 µM (not active) each time.
Regarding `O=C(COc1ccccc1-c1ccccc1)NCc1cccc(Cl)c1`, the 50% inhibitory concentration (IC50) at Cysteine protease ATG4B is 11.4 µM (active); at Phospholipase A2, 7.72 µM (active).
As for `CCOc1ccc(NCc2ccccc2OCc2cccc(F)c2)cc1`, the 50% effective concentration (EC50) in assay [3] was 1.29 µM (active); in assay [4], > 60 µM (not active). The 50% inhibitory concentration (IC50) on Cysteine protease ATG4B was 8.88 µM (active); on Phospholipase A2, 5.3 µM (active).
As to `O=C1CCCC2=C1C(c1ccccc1)C1C(=O)c3ccccc3C1=N2` (centres undefined), the CC50 in [5] was > 50 µM (active). For the same molecule, the IC50 in “cells [6]” is 39.8 µM (active).
As to `O=[N+]([O-])c1ccc(N2CCN(C(=S)c3cccc([N+](=O)[O-])c3)CC2)cc1`, in assay [7], the IC50 is 47.7 µM (active).
As for `COc1ccc(/C=C/C(=O)NCc2nc3ccccc3[nH]2)cc1OC`, in the assay “cells [6]”, the concentration for half-maximal inhibition (IC50) was 30.6 µM (active).
As for `COc1ccc(S(=O)(=O)Nc2ccc3ccccc3c2)cc1`, the concentration for half-maximal inhibition (IC50) in [8] was > 100 µM (not active); in [9], > 100 µM (inactive).
Regarding `Cc1c(Cl)cccc1N=C(S)N1CCN(C(=O)C2CCCO2)CC1` (centres undefined), the 50% effective concentration (EC50) in assay [1] and in assay [2] was > 300 µM (not active) in each case.
Take `N#CCSc1nc2ccccc2c2nc3ccccc3n12`: the 50% cytotoxic concentration (CC50) in assay [5] is 7.62 µM (active). The AC50 was 3.31 µM (active) in assay [10] and 8.38 µM (active) in the assay on INS1. Moreover, in the assay “cells [6]”, the IC50 is 9.82 µM (active).
As to `CCCCNC(=O)COC(=O)c1cc(F)c(F)cc1Cl`, in the assay “cells [11]”, the IC50 was 8.58 µM (active).
In the case of `O=C1Nc2cc(Cl)c(Cl)cc2N(O)N1c1cc(Cl)cc(Cl)c1`, the IC50 on Cysteine protease ATG4B was 14.5 µM (active); at Phospholipase A2 it was 13.7 µM (active).
As for `O=C(c1ccc(Br)o1)N1CCN=C1SCc1cccc(F)c1`, the concentration for a half-maximal effect (EC50) in assay [1] and in assay [2] was > 300 µM (not active) each time.
Turning to `CC(C)(C)NC(=O)c1cccc(NC(=O)c2ccc3c(c2)C(=O)N(C(C)(C)C)C3=O)c1`, the half-maximal cytotoxic concentration (CC50) in assay [5] is > 50 µM (active). The AC50 in [12] is 37.3 µM (active). Moreover, in the assay “cells [6]”, the IC50 was 39.8 µM (active).
For `COc1ccc(Cc2nnc(S)n2C)cc1Br`, the IC50 in assay [7] was 18.9 µM (active).
As to `CCOC(=O)c1c(NC(=O)c2cc(-c3ccc(O)cc3)on2)sc(C(C)=O)c1C`, in assay [13], the half-maximal inhibitory concentration (IC50) is 3.69 µM (active).
Regarding `C[C@H](CO)N1C[C@H](C)[C@@H](CN(C)C(=O)C2CCOCC2)Oc2cc(C#Cc3ccncc3)ccc2S1(=O)=O`, the half-maximal activity concentration (AC50) in [14] is 3.77 µM (active).
Same read-out and setting: with `CCCNC(=O)C[C@@H]1CC[C@@H]2[C@H](COc3ccc(NS(=O)(=O)c4ccccc4C)cc3C(=O)N2C)O1` the figure was 56 µM (active); with `C[C@@H]1CN([C@@H](C)CO)S(=O)(=O)c2ccc(C#CC3CC3)cc2O[C@@H]1CN(C)C(=O)c1cccc(F)c1`, 8.3 µM (active).
For `C[C@H]1CN([C@@H](C)CO)C(=O)c2c(c3ccccc3n2C)-c2ccccc2CO[C@@H]1CN(C)Cc1ccc(-c2ccccc2)cc1`, the AC50 at Paired box protein Pax-8 was 24.9 µM (active); in assay [15] it was 2.75 µM (active); in assay [16], 22.2 µM (active); in [17], 2.75 µM (active); in assay [18], 1.49 µM (active); in assay [19], 1.99 µM (active).
On to `N#Cc1cccc(-c2ccc3c(c2)[C@H]2[C@H](CCN2Cc2ccncc2)[C@@H](CO)N3)c1`, for which the half-maximal activity concentration (AC50) in [15] was 1.57 µM (active); in assay [16], > 100 µM (inactive); in assay [17] it was 1.99 µM (active); in assay [18], 1.4 µM (active); in [19], 3.28 µM (active).
The matching figures for `C[C@H](CO)N1C[C@H](C)[C@H](CN(C)CC2CC2)Oc2ccc(NC(=O)Nc3cccc4ccccc34)cc2CC1=O`: 2.51 µM (active), 48.5 µM (active), 2.51 µM (active), 1.25 µM (active) and 2.47 µM (active).
In the case of `Fc1cccc(-c2ccc([C@@H]3[C@@H]4CN(Cc5cncnc5)C[C@H]3N4)cc2)c1`, the AC50 in assay [15] is 4.51 µM (active); in [16], 18.8 µM (active); in assay [17] it was 1.36 µM (active); in assay [18] it was 1.6 µM (active); in [19] it was 2.67 µM (active).
